{"source": "paper PMC3879630", "about": "(Molecular & Cellular Proteomics : MCP, 2013)", "assay_in_all_cases": "biotin-switch assay, anti-GST western blot", "assay_type_in_all_cases": "binding", "key": {"RNF41 [1]": {"target": "T1, RNF41 (Homo sapiens, UniProt Q9H4P4, C238S)", "T1 sequence (Q9H4P4 1-317 C238S)": "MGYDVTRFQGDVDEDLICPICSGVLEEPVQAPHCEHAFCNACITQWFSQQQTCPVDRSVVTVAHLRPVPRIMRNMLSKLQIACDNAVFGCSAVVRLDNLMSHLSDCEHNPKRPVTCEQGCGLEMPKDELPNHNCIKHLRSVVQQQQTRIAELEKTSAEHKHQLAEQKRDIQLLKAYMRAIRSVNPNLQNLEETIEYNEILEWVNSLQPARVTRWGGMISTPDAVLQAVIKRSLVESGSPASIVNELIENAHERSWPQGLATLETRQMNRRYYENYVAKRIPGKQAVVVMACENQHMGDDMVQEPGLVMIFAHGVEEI", "settings": "covalent (S-nitrosylation of cysteine); 100 μM GSNO"}, "RNF11 [2]": {"target": "T2, RNF11 (Homo sapiens, UniProt Q9Y3C5, C4S)", "T2 sequence (Q9Y3C5 1-154 C4S)": "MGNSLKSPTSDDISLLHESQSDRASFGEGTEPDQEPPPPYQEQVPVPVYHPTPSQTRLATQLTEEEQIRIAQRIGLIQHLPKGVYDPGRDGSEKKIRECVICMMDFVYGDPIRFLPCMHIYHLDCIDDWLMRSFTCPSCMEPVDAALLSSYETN", "settings": "covalent (S-nitrosylation of cysteine); 100 μM GSNO"}, "RNF41 [3]": {"target": "T3, RNF41 (Homo sapiens, UniProt Q9H4P4, C134S)", "T3 sequence (Q9H4P4 1-317 C134S)": "T1 sequence (Q9H4P4 1-317 C238S) with C134S, S238C", "settings": "covalent (S-nitrosylation of cysteine); 100 μM GSNO"}, "RNF11 [4]": {"target": "T4, RNF11 (Homo sapiens, UniProt Q9Y3C5)", "T4 sequence (Q9Y3C5 1-154)": "T2 sequence (Q9Y3C5 1-154 C4S) with S4C", "settings": "covalent (S-nitrosylation, Cys4); 100 μM GSNO, 1 h; GSH control"}, "RNF41 [5]": {"target": "T5, RNF41 (Homo sapiens, UniProt Q9H4P4, C106S)", "T5 sequence (Q9H4P4 1-317 C106S)": "T1 sequence (Q9H4P4 1-317 C238S) with C106S, S238C", "settings": "covalent (S-nitrosylation of cysteine); 100 μM GSNO"}, "RNF141 [6]": {"target": "T6, RNF141 (Homo sapiens, UniProt Q8WVD5, C82S)", "T6 sequence (Q8WVD5 1-230 C82S)": "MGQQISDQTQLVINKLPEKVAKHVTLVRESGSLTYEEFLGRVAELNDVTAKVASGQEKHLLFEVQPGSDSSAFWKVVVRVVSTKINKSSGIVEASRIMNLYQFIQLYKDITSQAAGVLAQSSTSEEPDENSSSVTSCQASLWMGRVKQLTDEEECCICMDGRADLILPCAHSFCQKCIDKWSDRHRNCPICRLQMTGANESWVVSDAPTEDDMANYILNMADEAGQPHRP", "settings": "covalent (S-nitrosylation of cysteine); 100 μM GSNO"}, "RNF141 [7]": {"target": "T7, RNF141 (Homo sapiens, UniProt Q8WVD5)", "T7 sequence (Q8WVD5 1-230)": "T6 sequence (Q8WVD5 1-230 C82S) with S82C", "settings": "covalent (S-nitrosylation of cysteine); 100 μM GSNO"}}, "note": "Changes are numbered by the printed parent chain.", "data": [{"smiles": "N[C@@H](CCC(=O)N[C@@H](CSN=O)C(=O)NCC(=O)O)C(=O)O", "note": "[GSNO]", "values": [{"measurement": "S-nitrosylation (BSM)", "setting": "RNF41 [1]", "result": "C134S and C238S mutants have minimal effect on the S-nitrosylation of RNF41"}, {"measurement": "S-nitrosylation (BSM)", "setting": "RNF11 [2]", "result": "The C4S RNF11 protein is not S-nitrosylated"}, {"measurement": "S-nitrosylation (BSM)", "setting": "RNF41 [3]", "result": "C134S and C238S mutants have minimal effect on the S-nitrosylation of RNF41"}, {"measurement": "biotin-switch assay, anti-GST western blot", "setting": "RNF11 [4]", "result": "Cys4 is S-nitrosylated in RNF11"}, {"measurement": "S-nitrosylation (BSM)", "setting": "RNF41 [5]", "result": "The C106S RNF41 protein S-nitrosylation signal is dramatically reduced compared with WT RNF41"}, {"measurement": "S-nitrosylation (BSM)", "setting": "RNF141 [6]", "result": "The C82S and C175S RNF141 proteins both show reduced S-nitrosylation compared with WT RNF141"}, {"measurement": "S-nitrosylation (BSM)", "setting": "RNF141 [7]", "result": "The C82S and C175S RNF141 proteins both show reduced S-nitrosylation compared with WT RNF141"}]}]}
